The values below come from ChEMBL document CHEMBL3232879, “4,5,6,7-Tetrahydro-isoxazolo-[4,5-c]-pyridines as a new class of cytotoxic Hsp90 inhibitors” (Eur J Med Chem, 2014).

The target in one experiment is T1, Histone deacetylase 8 (Homo sapiens, UniProt Q9BY41).
T1 sequence (Q9BY41 whole entry): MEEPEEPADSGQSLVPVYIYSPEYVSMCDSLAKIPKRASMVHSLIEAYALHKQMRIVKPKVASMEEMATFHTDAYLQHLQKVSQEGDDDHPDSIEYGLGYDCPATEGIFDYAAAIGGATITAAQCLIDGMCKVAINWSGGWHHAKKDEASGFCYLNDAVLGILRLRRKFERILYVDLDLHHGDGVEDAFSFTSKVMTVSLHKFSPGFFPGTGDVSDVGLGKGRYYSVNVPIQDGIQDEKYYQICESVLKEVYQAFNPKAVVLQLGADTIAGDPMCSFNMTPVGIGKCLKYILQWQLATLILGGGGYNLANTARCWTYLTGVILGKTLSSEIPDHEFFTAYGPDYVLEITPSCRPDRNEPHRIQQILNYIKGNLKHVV
The experiment can be described thus: Inhibition of human HDAC-8 using RHK(Ac)K(Ac) as substrate.

Another experiment concerns the target Histone deacetylase 4 (Homo sapiens, UniProt P56524). The experiment can be described thus: Inhibition of human HDAC-4 using RHKK(Ac) as substrate.
The target of experiment [1] is T2, Polyamine deacetylase HDAC10 (Homo sapiens, UniProt Q969S8).
T2 sequence (Q969S8 whole entry): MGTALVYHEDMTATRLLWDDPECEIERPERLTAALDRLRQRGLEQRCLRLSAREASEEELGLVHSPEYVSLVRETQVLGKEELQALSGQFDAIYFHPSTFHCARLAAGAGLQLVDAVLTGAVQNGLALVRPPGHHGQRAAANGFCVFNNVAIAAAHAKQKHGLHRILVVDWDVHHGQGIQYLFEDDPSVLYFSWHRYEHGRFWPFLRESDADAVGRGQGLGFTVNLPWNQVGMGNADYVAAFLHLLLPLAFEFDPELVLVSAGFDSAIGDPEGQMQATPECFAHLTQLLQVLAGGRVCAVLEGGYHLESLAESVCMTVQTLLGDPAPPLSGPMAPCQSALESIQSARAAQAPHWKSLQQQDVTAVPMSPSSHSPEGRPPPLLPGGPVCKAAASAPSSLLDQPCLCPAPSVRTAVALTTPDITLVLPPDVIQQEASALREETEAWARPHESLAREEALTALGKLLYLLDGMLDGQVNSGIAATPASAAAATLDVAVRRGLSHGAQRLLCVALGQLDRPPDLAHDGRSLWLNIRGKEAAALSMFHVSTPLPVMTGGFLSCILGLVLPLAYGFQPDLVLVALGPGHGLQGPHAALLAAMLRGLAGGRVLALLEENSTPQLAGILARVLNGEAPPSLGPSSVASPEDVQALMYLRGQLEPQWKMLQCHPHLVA
Description: Inhibition of human HDAC-10 using RHKK(Ac) as substrate.

The target in a further experiment is Histone deacetylase 2 (Homo sapiens, UniProt Q92769). The experiment can be described thus: Inhibition of human HDAC-2 using RHKK(Ac) as substrate.
Chain of Histone deacetylase 2 (Q92769 whole entry): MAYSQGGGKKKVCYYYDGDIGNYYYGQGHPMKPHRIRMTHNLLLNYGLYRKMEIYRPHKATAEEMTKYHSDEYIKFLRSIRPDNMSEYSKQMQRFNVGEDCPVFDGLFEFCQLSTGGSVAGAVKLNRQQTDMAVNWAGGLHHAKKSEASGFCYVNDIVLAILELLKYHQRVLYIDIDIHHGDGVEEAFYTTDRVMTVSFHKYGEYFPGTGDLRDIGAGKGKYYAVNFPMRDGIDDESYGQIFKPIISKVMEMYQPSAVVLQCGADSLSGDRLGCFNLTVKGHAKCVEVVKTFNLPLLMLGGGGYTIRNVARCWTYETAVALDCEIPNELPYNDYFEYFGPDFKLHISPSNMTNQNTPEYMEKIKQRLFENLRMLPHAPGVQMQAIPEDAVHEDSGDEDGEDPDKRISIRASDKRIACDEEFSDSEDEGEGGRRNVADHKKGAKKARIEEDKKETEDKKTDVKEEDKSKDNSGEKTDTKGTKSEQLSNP
Experiment [2] concerns the target Heat shock protein HSP 90-alpha (Homo sapiens, UniProt P07900). The experiment can be described thus: Displacement of GM-FTC from Hsp90-alpha (unknown origin) after 4 hrs by fluorescence polarization assay.
Another experiment addresses Histone deacetylase 1 (Homo sapiens, UniProt Q13547). The experiment can be described thus: Inhibition of human HDAC-1 using RHKK(Ac) as substrate.
A further experiment addresses T3, Histone deacetylase 11 (Homo sapiens, UniProt Q96DB2).
T3 sequence (Q96DB2 whole entry): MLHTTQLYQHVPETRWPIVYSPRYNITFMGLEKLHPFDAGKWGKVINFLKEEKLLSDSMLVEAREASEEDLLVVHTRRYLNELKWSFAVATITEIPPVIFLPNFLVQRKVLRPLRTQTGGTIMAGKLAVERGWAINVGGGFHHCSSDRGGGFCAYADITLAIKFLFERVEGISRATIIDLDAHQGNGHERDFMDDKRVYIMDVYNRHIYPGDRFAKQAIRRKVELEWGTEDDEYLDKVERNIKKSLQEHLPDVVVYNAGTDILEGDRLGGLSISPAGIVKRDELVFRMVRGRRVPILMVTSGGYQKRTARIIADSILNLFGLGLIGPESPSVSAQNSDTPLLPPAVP
Description: Inhibition of human HDAC-11 using RHKK(Ac) as substrate.

For a further experiment, the target named is Histone deacetylase 5 (Homo sapiens, UniProt Q9UQL6). The experiment can be described thus: Inhibition of human HDAC-5 using RHKK(Ac) as substrate.
Chain of Histone deacetylase 5 (Q9UQL6 whole entry): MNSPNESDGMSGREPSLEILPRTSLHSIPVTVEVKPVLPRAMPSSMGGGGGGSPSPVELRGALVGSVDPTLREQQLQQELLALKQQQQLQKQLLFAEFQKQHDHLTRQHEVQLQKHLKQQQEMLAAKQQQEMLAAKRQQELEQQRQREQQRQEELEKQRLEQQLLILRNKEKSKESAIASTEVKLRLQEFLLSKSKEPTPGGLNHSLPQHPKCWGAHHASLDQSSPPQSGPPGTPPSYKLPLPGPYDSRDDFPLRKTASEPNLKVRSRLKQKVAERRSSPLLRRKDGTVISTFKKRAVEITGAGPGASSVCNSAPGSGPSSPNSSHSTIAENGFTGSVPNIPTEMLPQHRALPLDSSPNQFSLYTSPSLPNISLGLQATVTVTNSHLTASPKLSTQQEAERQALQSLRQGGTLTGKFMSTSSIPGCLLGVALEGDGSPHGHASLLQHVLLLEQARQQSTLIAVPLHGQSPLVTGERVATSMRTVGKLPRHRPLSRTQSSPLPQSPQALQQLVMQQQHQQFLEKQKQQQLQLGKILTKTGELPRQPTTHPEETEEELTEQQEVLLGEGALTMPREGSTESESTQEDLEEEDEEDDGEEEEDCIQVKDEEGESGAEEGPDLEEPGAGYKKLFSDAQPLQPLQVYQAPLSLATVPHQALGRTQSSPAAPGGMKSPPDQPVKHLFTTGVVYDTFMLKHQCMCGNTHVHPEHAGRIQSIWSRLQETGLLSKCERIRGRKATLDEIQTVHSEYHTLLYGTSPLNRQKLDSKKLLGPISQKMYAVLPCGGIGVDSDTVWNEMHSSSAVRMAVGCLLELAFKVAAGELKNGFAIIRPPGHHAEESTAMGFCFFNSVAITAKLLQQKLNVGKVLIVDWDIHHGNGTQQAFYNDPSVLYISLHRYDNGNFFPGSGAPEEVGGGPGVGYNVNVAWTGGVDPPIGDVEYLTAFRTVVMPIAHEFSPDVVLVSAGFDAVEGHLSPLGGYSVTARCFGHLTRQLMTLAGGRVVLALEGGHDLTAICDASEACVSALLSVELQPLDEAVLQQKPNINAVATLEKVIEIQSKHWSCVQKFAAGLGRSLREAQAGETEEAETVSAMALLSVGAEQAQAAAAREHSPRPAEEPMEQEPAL
A further experiment has as its target T4, Histone deacetylase 7 (Homo sapiens, UniProt Q8WUI4).
T4 sequence (Q8WUI4 whole entry): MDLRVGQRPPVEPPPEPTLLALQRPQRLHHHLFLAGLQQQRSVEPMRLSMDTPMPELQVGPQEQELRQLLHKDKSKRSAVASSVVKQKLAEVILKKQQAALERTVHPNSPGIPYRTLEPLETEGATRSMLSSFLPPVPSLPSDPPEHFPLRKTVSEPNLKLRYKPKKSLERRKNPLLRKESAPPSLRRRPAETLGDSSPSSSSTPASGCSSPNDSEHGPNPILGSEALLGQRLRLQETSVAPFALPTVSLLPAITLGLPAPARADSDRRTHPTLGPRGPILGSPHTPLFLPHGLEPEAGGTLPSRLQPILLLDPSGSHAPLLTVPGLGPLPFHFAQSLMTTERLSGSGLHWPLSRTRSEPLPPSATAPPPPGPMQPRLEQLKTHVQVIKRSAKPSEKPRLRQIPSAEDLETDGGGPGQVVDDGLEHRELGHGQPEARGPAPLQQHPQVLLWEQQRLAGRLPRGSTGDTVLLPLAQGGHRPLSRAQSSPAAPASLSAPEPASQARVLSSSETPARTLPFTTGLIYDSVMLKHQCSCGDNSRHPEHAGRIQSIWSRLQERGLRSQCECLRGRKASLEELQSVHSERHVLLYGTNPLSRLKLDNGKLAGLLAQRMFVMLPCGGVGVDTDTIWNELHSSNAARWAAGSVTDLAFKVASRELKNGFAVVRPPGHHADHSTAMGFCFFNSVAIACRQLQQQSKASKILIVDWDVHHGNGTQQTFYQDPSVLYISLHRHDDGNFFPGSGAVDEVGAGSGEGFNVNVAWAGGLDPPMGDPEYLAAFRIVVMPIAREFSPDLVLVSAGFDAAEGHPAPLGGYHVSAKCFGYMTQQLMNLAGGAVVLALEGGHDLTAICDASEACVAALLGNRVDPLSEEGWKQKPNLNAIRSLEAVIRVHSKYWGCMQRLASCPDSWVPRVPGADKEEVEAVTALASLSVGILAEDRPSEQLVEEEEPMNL
The experiment can be described thus: Inhibition of human HDAC-7 using RHKK(Ac) as substrate.

Experiment [3] concerns the target Histone deacetylase 3/Nuclear receptor corepressor 2 (HDAC3/NCoR2) (Homo sapiens, UniProt O15379). Description: Inhibition of human HDAC-3/NCOR-2 using RHKK(Ac) as substrate. The class given is protein-complex assay.

Chain of Histone deacetylase 1 (Q13547 whole entry): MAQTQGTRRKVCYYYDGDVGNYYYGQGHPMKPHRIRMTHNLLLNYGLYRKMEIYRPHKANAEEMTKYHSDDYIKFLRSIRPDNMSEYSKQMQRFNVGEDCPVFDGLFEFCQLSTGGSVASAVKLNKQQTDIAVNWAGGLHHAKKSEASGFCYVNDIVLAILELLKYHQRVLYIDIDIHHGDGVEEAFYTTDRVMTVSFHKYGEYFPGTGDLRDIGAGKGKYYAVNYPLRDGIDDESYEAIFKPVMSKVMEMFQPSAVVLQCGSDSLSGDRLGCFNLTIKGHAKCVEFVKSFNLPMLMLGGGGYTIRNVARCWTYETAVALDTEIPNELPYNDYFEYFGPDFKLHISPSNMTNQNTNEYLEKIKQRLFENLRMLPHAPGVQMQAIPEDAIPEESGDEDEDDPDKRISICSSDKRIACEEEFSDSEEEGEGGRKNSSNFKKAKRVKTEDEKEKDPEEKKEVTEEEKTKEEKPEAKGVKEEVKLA
Chain of Histone deacetylase 4 (P56524 whole entry): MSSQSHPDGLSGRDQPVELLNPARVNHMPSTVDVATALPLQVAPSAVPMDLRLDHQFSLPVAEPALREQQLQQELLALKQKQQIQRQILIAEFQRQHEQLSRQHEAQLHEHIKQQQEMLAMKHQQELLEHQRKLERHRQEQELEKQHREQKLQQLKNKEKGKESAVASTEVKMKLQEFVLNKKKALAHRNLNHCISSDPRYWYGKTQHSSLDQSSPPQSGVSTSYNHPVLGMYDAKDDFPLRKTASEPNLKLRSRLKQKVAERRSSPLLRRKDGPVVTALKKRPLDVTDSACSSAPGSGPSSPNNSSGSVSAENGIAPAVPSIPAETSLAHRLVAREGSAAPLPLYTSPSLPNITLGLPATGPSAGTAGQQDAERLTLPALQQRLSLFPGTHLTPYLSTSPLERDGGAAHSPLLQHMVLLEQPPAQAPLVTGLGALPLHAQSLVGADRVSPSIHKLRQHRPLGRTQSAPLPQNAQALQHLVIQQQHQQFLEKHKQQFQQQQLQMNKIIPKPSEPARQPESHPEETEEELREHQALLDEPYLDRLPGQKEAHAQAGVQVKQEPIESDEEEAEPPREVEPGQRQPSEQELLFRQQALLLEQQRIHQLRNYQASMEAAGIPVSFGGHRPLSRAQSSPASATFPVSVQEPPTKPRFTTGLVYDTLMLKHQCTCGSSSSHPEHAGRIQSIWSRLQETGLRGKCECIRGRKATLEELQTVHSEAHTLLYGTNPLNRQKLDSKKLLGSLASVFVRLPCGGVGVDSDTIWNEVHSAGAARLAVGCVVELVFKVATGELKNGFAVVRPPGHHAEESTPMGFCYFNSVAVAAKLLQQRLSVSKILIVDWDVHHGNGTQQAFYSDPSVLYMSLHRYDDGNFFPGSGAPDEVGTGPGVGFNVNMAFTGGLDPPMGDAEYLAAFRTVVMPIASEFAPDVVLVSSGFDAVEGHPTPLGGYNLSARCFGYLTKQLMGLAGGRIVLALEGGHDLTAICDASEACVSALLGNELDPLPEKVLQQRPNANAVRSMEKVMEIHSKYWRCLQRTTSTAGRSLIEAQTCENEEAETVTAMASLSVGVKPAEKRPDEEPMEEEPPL

One may read the IC50 as the midpoint of a concentration-inhibition curve. A low value points to greater potency in that assay. As to `CC(C)c1cc(C(=O)N2CCc3onc(C(=O)NCCCCCCC(=O)NO)c3C2)c(O)cc1O`, the IC50 came out at 1760 nM against Histone deacetylase 8; 75900 nM at Histone deacetylase 4; 886 nM in experiment [1]; 9490 nM at Histone deacetylase 2; 33 nM in experiment [2]; 2030 nM against Histone deacetylase 1. Moreover, the 50% inhibitory concentration (IC50) against Histone deacetylase 11 was 521 nM; against Histone deacetylase 5, 1580 nM; against Histone deacetylase 7, 2510 nM; in experiment [3] it was 4230 nM.
